Experiments:
[1] = system: high-risk patients diagnosed with primary osteoporosis; test: Working Example 2: new (incl. multiple, new+worsening) vertebral fractures by x-ray, test drug 200 units once a week for 72 weeks vs placebo; format: in vivo, human
Text: The above patients also took two tablets of a calcium agent once a day after dinner. […] The preparation contained precipitated calcium carbonate, magnesium carbonate, cholecalciferol (vitamin D3), and the like as components and is marketed under the trade name New Calcichew (trademark) D3″ (sold by: Daiichi Sankyo Health Care, manufactured and sold by: Nitto Pharmaceutical Industries, Ltd.).
The incidence of bone fractures was checked by frontal and lateral x-rays of the fourth thoracic to the fourth lumbar spine taken at the start and every 24 weeks thereafter.
Here, “multiple vertebral fractures” was defined as two or more new vertebral fractures. When the incidence of multiple vertebral fractures (number of cases) was compared in the test drug group (n=261) and control group (n=281) after 72 weeks of administration, it was 2.1% (6 cases) in the control group and 0.8% (2 cases) in the test drug group.

[2] = system: patients diagnosed with primary osteoporosis; test: Working Example 1: lumbar spine bone mineral density by DXA, teriparatide acetate 5 or 100 units once a week plus calcium agent; format: in vivo, human; conditions: mean ± SD
Method: Both the 5 and 100 unit groups were administered two tablets of a calcium agent (containing 500 mg of precipitated calcium carbonate [200 mg as calcium] per tablet) once a day.
The osteoporosis patients were classified as condition shown in Table 1 based on the bone fracture risk factors present, as in Non-patent Reference 13, and compared. High-risk patients were defined as having all three factors involving age, prevalent vertebral fractures, and bone density or bone atrophy; low-risk patients were defined as other than the above.

[3] = 200 units weekly, 72 weeks, No. of fractures: five or more
[4] = 200 units weekly, 72 weeks, No. of fractures: four
[5] = 200 units weekly, 72 weeks, No. of fractures: none
[6] = 200 units weekly, 72 weeks, No. of fractures: one
[7] = 200 units weekly, 72 weeks, No. of fractures: three
[8] = 200 units weekly, 72 weeks, No. of fractures: two
[9] = 200 units weekly, after 72 weeks, n=261
[10] = 200 units weekly, history of Alfacalcidol
[11] = 200 units weekly, history of calcitriol
[12] = 200 units weekly, history of calcium L-aspartate
[13] = 200 units weekly, history of calcium lactate
[14] = 200 units weekly, history of elcatonin
[15] = 200 units weekly, history of menatetrenone
[16] = 200 units weekly, history of raloxifene hydrochloride
[17] = 200 units weekly, patients taking glucocorticoid

teriparatide acetate
Occurrence of new vertebral fractures after 48 weeks ([1]; 200 units weekly, 48 to 72 weeks): no new vertebral fractures occurred after 48 weeks
New vertebral fractures: Incidence (%) [1, 3]: 0.0%
New vertebral fractures: No. of subjects [1, 3]: 0
New vertebral fractures: Incidence (%) [1, 4]: 0.0%
New vertebral fractures: No. of subjects [1, 4]: 0
New vertebral fractures: Incidence (%) [1, 5]: 97.3%
New vertebral fractures: No. of subjects [1, 5]: 254
New vertebral fractures: Incidence (%) [1, 6]: 1.9%
New vertebral fractures: No. of subjects [1, 6]: 5
New vertebral fractures: Incidence (%) [1, 7]: 0.0%
New vertebral fractures: No. of subjects [1, 7]: 0
New vertebral fractures: Incidence (%) [1, 8]: 0.8%
New vertebral fractures: No. of subjects [1, 8]: 2
Lowering of the risk of vertebral fractures (new+worsening) in comparison to the placebo ([1]; 200 units weekly, after 72 weeks): 78.6%
Incidence of vertebral fractures (new+worsening) by Kaplan-Meier estimation ([1]; 200 units weekly, after 72 weeks, FAS): 3.5%
Incidence of multiple vertebral fractures (two or more new vertebral fractures) [1, 9]: 0.8%
Multiple vertebral fractures, number of cases [1, 9]: 2 cases
New vertebral fractures: No. with fractures ([1]; 200 units weekly, complication (diabetes): no): 7
Incidence of new vertebrae fractures (%) ([1]; 200 units weekly, complication (diabetes): no, after 24 W): 2.8%
Incidence of new vertebrae fractures (%) ([1]; 200 units weekly, complication (diabetes): no, after 48 W): 3.3%
Incidence of new vertebrae fractures (%) ([1]; 200 units weekly, complication (diabetes): no, after 72 W): 3.3%
New vertebral fractures: No. with fractures ([1]; 200 units weekly, complication (diabetes): yes): 0
Incidence of new vertebrae fractures (%) ([1]; 200 units weekly, complication (diabetes): yes, after 24 W): 0.0%
Incidence of new vertebrae fractures (%) ([1]; 200 units weekly, complication (diabetes): yes, after 48 W): 0.0%
Incidence of new vertebrae fractures (%) ([1]; 200 units weekly, complication (diabetes): yes, after 72 W): 0.0%
New vertebral fractures: No. with fractures ([1]; 200 units weekly, complication (hyperlipidemia): no): 4
Incidence of new vertebrae fractures (%) ([1]; 200 units weekly, complication (hyperlipidemia): no, after 24 W): 2.2%
Incidence of new vertebrae fractures (%) ([1]; 200 units weekly, complication (hyperlipidemia): no, after 48 W): 3.0%
Incidence of new vertebrae fractures (%) ([1]; 200 units weekly, complication (hyperlipidemia): no, after 72 W): 3.0%
New vertebral fractures: No. with fractures ([1]; 200 units weekly, complication (hyperlipidemia): yes): 3
Incidence of new vertebrae fractures (%) ([1]; 200 units weekly, complication (hyperlipidemia): yes, after 24 W): 3.2%
Incidence of new vertebrae fractures (%) ([1]; 200 units weekly, complication (hyperlipidemia): yes, after 48 W): 3.2%
Incidence of new vertebrae fractures (%) ([1]; 200 units weekly, complication (hyperlipidemia): yes, after 72 W): 3.2%
New vertebral fractures: No. with fractures ([1]; 200 units weekly, complication (hypertension): no): 3
Incidence of new vertebrae fractures (%) ([1]; 200 units weekly, complication (hypertension): no, after 24 W): 2.1%
Incidence of new vertebrae fractures (%) ([1]; 200 units weekly, complication (hypertension): no, after 48 W): 3.1%
Incidence of new vertebrae fractures (%) ([1]; 200 units weekly, complication (hypertension): no, after 72 W): 3.1%
New vertebral fractures: No. with fractures ([1]; 200 units weekly, complication (hypertension): yes): 4
Incidence of new vertebrae fractures (%) ([1]; 200 units weekly, complication (hypertension): yes, after 24 W): 3.1%
Incidence of new vertebrae fractures (%) ([1]; 200 units weekly, complication (hypertension): yes, after 48 W): 3.1%
Incidence of new vertebrae fractures (%) ([1]; 200 units weekly, complication (hypertension): yes, after 72 W): 3.1%
Incidence of new vertebral fractures (%) ([1]; 200 units weekly, creatinine clearance abnormal (<80), after 24 W): 2.8%
Incidence of new vertebral fractures (%) ([1]; 200 units weekly, creatinine clearance abnormal (<80), after 48 W): 3.4%
Incidence of new vertebral fractures (%) ([1]; 200 units weekly, creatinine clearance abnormal (<80), after 72 W): 3.4%
New vertebral fractures: No. with fractures ([1]; 200 units weekly, creatinine clearance at start abnormal (<80)): 6
New vertebral fractures: No. with fractures ([1]; 200 units weekly, creatinine clearance at start normal (≧80)): 0
Incidence of new vertebral fractures (%) ([1]; 200 units weekly, creatinine clearance normal (≧80), after 24 W): 0.0%
Incidence of new vertebral fractures (%) ([1]; 200 units weekly, creatinine clearance normal (≧80), after 48 W): 0.0%
Incidence of new vertebral fractures (%) ([1]; 200 units weekly, creatinine clearance normal (≧80), after 72 W): 0.0%
New vertebral fractures: no (patients) [1, 10]: 62
New vertebral fractures: yes (patients) [1, 10]: 1
New vertebral fractures: no (patients) [1, 11]: 7
New vertebral fractures: yes (patients) [1, 11]: 1
New vertebral fractures: no (patients) [1, 12]: 28
New vertebral fractures: yes (patients) [1, 12]: 1
New vertebral fractures: no (patients) [1, 13]: 8
New vertebral fractures: yes (patients) [1, 13]: 0
New vertebral fractures: no (patients) [1, 14]: 35
New vertebral fractures: yes (patients) [1, 14]: 2
New vertebral fractures: no (patients) [1, 15]: 6
New vertebral fractures: yes (patients) [1, 15]: 0
New vertebral fractures: no (patients) [1, 16]: 20
New vertebral fractures: yes (patients) [1, 16]: 0
Existence of new vertebral fractures, Fracture: no (patients) [1, 17]: 29
Existence of new vertebral fractures, Fracture: yes (patients) [1, 17]: 0
New vertebral fractures: No. with fractures ([1]; 200 units weekly, prior osteoporosis treatment (no)): 4
Incidence of new vertebral fractures (%) ([1]; 200 units weekly, prior osteoporosis treatment (no), after 24 W): 2.4%
Incidence of new vertebral fractures (%) ([1]; 200 units weekly, prior osteoporosis treatment (no), after 48 W): 3.2%
Incidence of new vertebral fractures (%) ([1]; 200 units weekly, prior osteoporosis treatment (no), after 72 W): 3.2%
New vertebral fractures: No. with fractures ([1]; 200 units weekly, prior osteoporosis treatment (yes)): 3
Incidence of new vertebral fractures (%) ([1]; 200 units weekly, prior osteoporosis treatment (yes), after 24 W): 2.9%
Incidence of new vertebral fractures (%) ([1]; 200 units weekly, prior osteoporosis treatment (yes), after 48 W): 2.9%
Incidence of new vertebral fractures (%) ([1]; 200 units weekly, prior osteoporosis treatment (yes), after 72 W): 2.9%
New vertebral fractures, No. with fractures ([1]; FAS, 72 weeks): 7
New vertebral fractures, No. with fractures ([1]; time after administration >24 W-≦48 W): 2
New vertebral fractures, No. with fractures ([1]; time after administration >48 W-≦72 W): 0
New vertebral fractures, No. with fractures ([1]; time after administration ≦24 W): 6
Lumbar spine bone mineral density (% change) ([2]; high-risk patients, 5 units once a week, after 26 W): −0.9 ± 4.4%
Lumbar spine bone mineral density (% change) ([2]; high-risk patients, 5 units once a week, after 52 W): −0.6 ± 4.1%
Lumbar spine bone mineral density (% change) ([2]; high-risk patients, 5 units once a week, after 78 W): 0.4 ± 4.1%
Lumbar spine bone mineral density (% change) ([2]; high-risk patients, 5 units once a week, after 104 W): 0.4 ± 4.0%
Lumbar spine bone mineral density (% change) ([2]; high-risk patients, 5 units once a week, final check): −0.1 ± 4.8%
Lumbar spine bone mineral density (% change) ([2]; high-risk patients, 100 units once a week, after 26 W): 3.3 ± 4.5 %
Lumbar spine bone mineral density (% change) ([2]; high-risk patients, 100 units once a week, after 52 W): 4.3 ± 4.5 %
Lumbar spine bone mineral density (% change) ([2]; high-risk patients, 100 units once a week, after 78 W): 4.0 ± 4.5 %
Lumbar spine bone mineral density (% change) ([2]; high-risk patients, 100 units once a week, after 104 W): 4.9 ± 4.2 %
Lumbar spine bone mineral density (% change) ([2]; high-risk patients, 100 units once a week, final check): 4.5 ± 4.6 %
Lumbar spine bone mineral density (% change) ([2]; low-risk patients, 5 units once a week, after 26 W): −0.6 ± 6.4%
Lumbar spine bone mineral density (% change) ([2]; low-risk patients, 5 units once a week, after 52 W): −0.7 ± 6.2%
Lumbar spine bone mineral density (% change) ([2]; low-risk patients, 5 units once a week, after 78 W): 1.9 ± 7.5%
Lumbar spine bone mineral density (% change) ([2]; low-risk patients, 5 units once a week, final check): −0.6 ± 5.7%
